Reference: article PMC10946275, “New imidazole-2-thiones linked to acenaphythylenone as dual DNA intercalators and topoisomerase II inhibitors: structural optimization, docking, and apoptosis studies” (Journal of Enzyme Inhibition and Medicinal Chemistry, 2024)

SMILES | melting point
Cn1c(-c2ccccc2)cn(N=C2C(=O)c3cccc4cccc2c34)c1=S [5a, 2-((3-Methyl-4-phenyl-2-thioxo-2,3-dihydro-1H-imidazol-1-yl)imino)acenaphthylen-1(2H)-one] | 220 to 222 °C
O=C1C(=Nn2cc(-c3ccccc3)n(Cc3ccccc3)c2=S)c2cccc3cccc1c23 [5c, 2-((3-Benzyl-4-phenyl-2-thioxo-2,3-dihydro-1H-imidazol-1-yl)imino)-acenaphthylen-1(2H)-one] | 212 to 214 °C
O=C1C(=Nn2cc(-c3ccccc3)n(C3CCCCC3)c2=S)c2cccc3cccc1c23 [5d, 2-((3-Cyclohexyl-4-phenyl-2-thioxo-2,3-dihydro-1H-imidazol-1-yl)imino)-acenaphthylen-1(2H)-one] | 192 to 194 °C
Cn1c(-c2ccc(Cl)cc2)cn(N=C2C(=O)c3cccc4cccc2c34)c1=S [5g, 2-((4–(4-Chlorophenyl)-3-methyl-2-thioxo-2,3-dihydro-1H-imidazol-1-yl)imino)-acenaphthylen-1(2H)-one] | 262 to 264 °C
O=C1C(=Nn2cc(-c3ccc(Cl)cc3)n(Cc3ccccc3)c2=S)c2cccc3cccc1c23 [5i, 2-((3-Benzyl-4-(4-chlorophenyl)-2-thioxo-2,3-dihydro-1H-imidazol-1-yl)imino)-acenaphthylen-1(2H)-one] | 260 to 262 °C
Cn1c(-c2ccc3ccccc3c2)cn(N=C2C(=O)c3cccc4cccc2c34)c1=S [5l, 2-((3-Methyl-4-(naphthalen-2-yl)-2-thioxo-2,3-dihydro-1H-imidazol-1-yl)imino)-acenaphthylen-1(2H)-one] | 240 to 242 °C
O=C1C(=Nn2cc(-c3ccc4ccccc4c3)n(Cc3ccccc3)c2=S)c2cccc3cccc1c23 [5m, 2-((3-Benzyl-4-(naphthalen-2-yl)-2-thioxo-2,3-dihydro-1H-imidazol-1-yl)imino)-acenaphthylen-1(2H)-one] | 332 to 334 °C
